Assay results taken from patent US11858941B2, “Heterocyclic and heteroaryl compounds for treating Huntington's disease” (PTC THERAPEUTICS, INC., priority 2018, dated 2024).

What follows are molecules tested on Endogenous Huntingtin Protein (assay: Endogenous Huntingtin Protein Assay (Meso Scale Discovery ELISA-based electrochemiluminescence)). Settings: MSD plates coated with MW1 (expanded polyglutamine) or MAB2166 capture antibody; lysates.
Format: cell-based
In short: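 MSD electrochemiluminescence sandwich ELISA: MW1 (expanded polyQ) or MAB2166 capture antibody at 1 μg/mL, samples incubated overnight at 4° C. Detection with rabbit monoclonal #5656S then SULFO-TAG anti-rabbit antibody, each 0.25 μg/mL for 1 h at room temperature.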
Molecule CC1(C)CC(n2nnc3cc(-c4ccc(-c5ccnc6[nH]ccc56)cc4O)nnc32)CC(C)(C)N1 [Cpd 118, 5-(1H-pyrrolo[2,3-b]pyridin-4-yl)-2-[3-(2,2,6,6-tetramethylpiperidin-4-yl)-3H-[1,2,3]triazolo[4,5-c]pyridazin-6-yl]phenol] has an IC50 of 1000 to 3000 nM.
In the case of Cc1nc2cc(-c3ccc(-c4cn[nH]c4)cc3O)nnc2n1C1CC(C)(C)NC(C)(C)C1 [Cpd 5, 2-[6-methyl-7-(2,2,6,6-tetramethylpiperidin-4-yl)-7H-imidazo[4,5-c]pyridazin-3-yl]-5-(1H-pyrazol-4-yl)phenol], the IC50 is reported as at most 100 nM.
Cn1ccc(-c2cc(O)c(-c3cc4nnn(C5CC(C)(C)NC(C)(C)C5)c4nn3)cc2F)cc1=O [Cpd 55, 4-{2-fluoro-5-hydroxy-4-[3-(2,2,6,6-tetramethylpiperidin-4-yl)-3H-[1,2,3]triazolo[4,5-c]pyridazin-6-yl]phenyl}-1-methylpyridin-2(1H)-one] gave an IC50 of 100 to 500 nM.
Work on CC1(C)CC(n2nnc3cc(-c4ccc(-c5cc(F)c6nn[nH]c6c5)cc4O)nnc32)CC(C)(C)N1 [Cpd 135, 5-(4-fluoro-1H-benzotriazol-6-yl)-2-[3-(2,2,6,6-tetramethylpiperidin-4-yl)-3H-[1,2,3]triazolo[4,5-c]pyridazin-6-yl]phenol] yielded an IC50 of at most 100 nM.
Molecule CC1(C)CC(n2nnc3cc(-c4c(O)cc(-c5cn[nH]c5)cc4F)nnc32)CC(C)(C)N1 [Cpd 59, 3-fluoro-5-(1H-pyrazol-4-yl)-2-[3-(2,2,6,6-tetramethylpiperidin-4-yl)-3H-[1,2,3]triazolo[4,5-c]pyridazin-6-yl]phenol] has an IC50 of at most 100 nM.
For CC1(C)CC(n2ccc3cc(-c4ncc(-c5cn[nH]c5)cc4O)nnc32)CC(C)(C)N1 [Cpd 136, 5-(1H-pyrazol-4-yl)-2-[7-(2,2,6,6-tetramethylpiperidin-4-yl)-7H-pyrrolo[2,3-c]pyridazin-3-yl]pyridin-3-ol], the IC50 was at most 100 nM.
For CC1(C)CC(n2nnc3cc(-c4ccc(-c5cncnc5)cc4O)nnc32)CC(C)(C)N1 [Cpd 78, 5-(pyrimidin-5-yl)-2-[3-(2,2,6,6-tetramethylpiperidin-4-yl)-3H-[1,2,3]triazolo[4,5-c]pyridazin-6-yl]phenol], the IC50 was 1000 to 3000 nM.
Molecule CC1(C)C=C(c2c[nH]c3cc(-c4ccc(-c5cn[nH]c5)cc4O)nnc23)CC(C)(C)N1 [Cpd 20, 5-(1H-pyrazol-4-yl)-2-[7-(2,2,6,6-tetramethyl-1,2,3,6-tetrahydropyridin-4-yl)-5H-pyrrolo[3,2-c]pyridazin-3-yl]phenol] has an IC50 of at most 100 nM.
With Cc1cnc(-c2ccc(-c3cc4nnn(C5CC(C)(C)NC(C)(C)C5)c4nn3)c(O)c2)s1 [Cpd 133, 5-(5-methyl-1,3-thiazol-2-yl)-2-[3-(2,2,6,6-tetramethylpiperidin-4-yl)-3H-[1,2,3]triazolo[4,5-c]pyridazin-6-yl]phenol] the IC50 was 100 to 500 nM.
For Fc1c(-c2cn[nH]c2)ccc(-c2cc3c(nn2)N(C2CC4CCC(C2)N4)CC3)c1F (stereo not drawn) [Cpd 36, 7-[(3-exo)-8-azabicyclo[3.2.1]oct-3-yl]-3-[2,3-difluoro-4-(1H-pyrazol-4-yl)phenyl]-6,7-dihydro-5H-pyrrolo[2,3-c]pyridazine], the IC50 was 100 to 500 nM.
For Cn1ccc(-c2ccc(-c3cc4nnn(C5CC(C)(C)NC(C)(C)C5)c4nn3)c(O)c2)cc1=O [Cpd 37, 4-{3-hydroxy-4-[3-(2,2,6,6-tetramethylpiperidin-4-yl)-3H-[1,2,3]triazolo[4,5-c]pyridazin-6-yl]phenyl}-1-methylpyridin-2(1H)-one], the IC50 was at most 100 nM.
Work on CC1(C)CC(n2nnc3cc(-c4ccc(-c5c[nH]nc5C#N)cc4O)nnc32)CC(C)(C)N1 [Cpd 109, 4-{3-hydroxy-4-[3-(2,2,6,6-tetramethylpiperidin-4-yl)-3H-[1,2,3]triazolo[4,5-c]pyridazin-6-yl]phenyl}-1H-pyrazole-3-carbonitrile] yielded an IC50 of at most 100 nM.
CC1(C)CC(n2nnc3cc(-c4ccc(-c5c[nH]nc5Br)cc4O)nnc32)CC(C)(C)N1 [Cpd 137, 5-(3-bromo-1H-pyrazol-4-yl)-2-[3-(2,2,6,6-tetramethylpiperidin-4-yl)-3H-[1,2,3]triazolo[4,5-c]pyridazin-6-yl]phenol] gave an IC50 of at most 100 nM.
Cn1cnc(-c2ccc(-c3cc4nnn([C@H]5CC(C)(C)NC(C)(C)[C@H]5F)c4nn3)c(O)c2)cc1=O [Cpd 172, 6-(4-{3-[(3S,4S)-3-fluoro-2,2,6,6-tetramethylpiperidin-4-yl]-3H-[1,2,3]triazolo[4,5-c]pyridazin-6-yl}-3-hydroxyphenyl)-3-methylpyrimidin-4(3H)-one] was tested, and the IC50 was 100 to 500 nM.
Cc1nc2cc(-c3cc(F)c(-c4cn[nH]c4)cc3F)nnc2n1C1CC(C)(C)NC(C)(C)C1 [Cpd 6, 3-[2,5-difluoro-4-(1H-pyrazol-4-yl)phenyl]-6-methyl-7-(2,2,6,6-tetramethylpiperidin-4-yl)-7H-imidazo[4,5-c]pyridazine] showed an IC50 of 500 to 1000 nM.
CC1(C)CC(n2ccc3nc(-c4cc(F)c(-c5cn[nH]c5)cc4F)cnc32)CC(C)(C)N1 [Cpd 16, 2-[2,5-difluoro-4-(1H-pyrazol-4-yl)phenyl]-5-(2,2,6,6-tetramethylpiperidin-4-yl)-5H-pyrrolo[2,3-b]pyrazine] was tested, and the IC50 was 100 to 500 nM.
Molecule C[C@]12CC[C@](C)(CC(n3nnc4cc(-c5ccc(-c6cn[nH]c6)cc5O)nnc43)C1)N2 (stereo partly drawn) [Cpd 57, 2-{3-[(1R,5S)-1,5-dimethyl-8-azabicyclo[3.2.1]octan-3-yl]-3H-[1,2,3]triazolo[4,5-c]pyridazin-6-yl}-5-(1H-pyrazol-4-yl)phenol] has an IC50 of at most 100 nM.
In the case of CC1(C)CC(c2c[nH]c3cc(-c4ccc(-c5cn[nH]c5)cc4O)nnc23)CC(C)(C)N1 [Cpd 31, 5-(1H-pyrazol-4-yl)-2-[7-(2,2,6,6-tetramethylpiperidin-4-yl)-5H-pyrrolo[3,2-c]pyridazin-3-yl]phenol], the IC50 is reported as at most 100 nM.
In the case of COc1cc(-c2ccc(-c3cc4nnn(C5CC(C)(C)NC(C)(C)C5)c4nn3)c(O)c2)ncn1 [Cpd 113, 5-(6-methoxypyrimidin-4-yl)-2-[3-(2,2,6,6-tetramethylpiperidin-4-yl)-3H-[1,2,3]triazolo[4,5-c]pyridazin-6-yl]phenol], the IC50 is reported as at most 100 nM.
For CC1(C)CC(n2nnc3cc(-c4cc5cn[nH]c5cc4O)nnc32)CC(C)(C)N1 [Cpd 94, 5-[3-(2,2,6,6-tetramethylpiperidin-4-yl)-3H-[1,2,3]triazolo[4,5-c]pyridazin-6-yl]-1H-indazol-6-ol], the IC50 was 500 to 1000 nM.
CC1(C)CC(n2nnc3cc(-c4ccc(-c5cc(=O)[nH]cn5)cc4O)nnc32)CC(C)(C)N1 [Cpd 128, 6-{3-hydroxy-4-[3-(2,2,6,6-tetramethylpiperidin-4-yl)-3H-[1,2,3]triazolo[4,5-c]pyridazin-6-yl]phenyl}pyrimidin-4(3H)-one] showed an IC50 of at most 100 nM.
With Cn1ncc(-c2ccc(-c3cc4nnn(C5CC(C)(C)NC(C)(C)C5)c4nn3)c(O)c2)n1 [Cpd 151, 5-(2-methyl-2H-1,2,3-triazol-4-yl)-2-[3-(2,2,6,6-tetramethylpiperidin-4-yl)-3H-[1,2,3]triazolo[4,5-c]pyridazin-6-yl]phenol] the IC50 was at most 100 nM.
CCOc1cc(-c2ccc(-c3cc4nnn(C5CC(C)(C)NC(C)(C)C5)c4nn3)c(O)c2)ncn1 [Cpd 124, 5-(6-ethoxypyrimidin-4-yl)-2-[3-(2,2,6,6-tetramethylpiperidin-4-yl)-3H-[1,2,3]triazolo[4,5-c]pyridazin-6-yl]phenol] was tested, and the IC50 was at most 100 nM.
Work on CC1(C)CC(n2nnc3cc(-c4ccc(-c5cn[nH]c5)c5nn[nH]c45)nnc32)CC(C)(C)N1 [Cpd 117, 6-[4-(1H-pyrazol-4-yl)-1H-benzotriazol-7-yl]-3-(2,2,6,6-tetramethylpiperidin-4-yl)-3H-[1,2,3]triazolo[4,5-c]pyridazine] yielded an IC50 of 3000 to 9000 nM.
Molecule CC1(C)CC(n2nnc3cc(-c4ccc(-c5ncc(C#N)s5)cc4O)nnc32)CC(C)(C)N1 [Cpd 110, 2-{3-hydroxy-4-[3-(2,2,6,6-tetramethylpiperidin-4-yl)-3H-[1,2,3]triazolo[4,5-c]pyridazin-6-yl]phenyl}-1,3-thiazole-5-carbonitrile] has an IC50 of 100 to 500 nM.
In the case of Cc1cnn(-c2ccc(-c3cc4nnn(C5CC(C)(C)NC(C)(C)C5)c4nn3)c(O)c2)c1 [Cpd 156, 5-(4-methyl-1H-pyrazol-1-yl)-2-(3-(2,2,6,6-tetramethylpiperidin-4-yl)-3H-[1,2,3]triazolo[4,5-c]pyridazin-6-yl)phenol], the IC50 is reported as 100 to 500 nM.
In the case of Cn1cc(-c2cc(O)c(-c3cc4nnn(C5CC(C)(C)NC(C)(C)C5)c4nn3)cc2F)cn1 [Cpd 62, 4-fluoro-5-(1-methyl-1H-pyrazol-4-yl)-2-[3-(2,2,6,6-tetramethylpiperidin-4-yl)-3H-[1,2,3]triazolo[4,5-c]pyridazin-6-yl]phenol], the IC50 is reported as at most 100 nM.
With CC1(C)CC(n2ncc3cc(-c4ccc(-c5cccnc5)cc4O)nnc32)CC(C)(C)N1 [Cpd 166, 5-(pyridin-3-yl)-2-[1-(2,2,6,6-tetramethylpiperidin-4-yl)-1H-pyrazolo[3,4-c]pyridazin-5-yl]phenol] the IC50 was 100 to 500 nM.
With Cn1cc(-c2ccc(-c3cc4nnn(C5CC(C)(C)NC(C)(C)C5)c4nn3)c(O)c2)c(Cl)n1 [Cpd 127, 5-(3-chloro-1-methyl-1H-pyrazol-4-yl)-2-[3-(2,2,6,6-tetramethylpiperidin-4-yl)-3H-[1,2,3]triazolo[4,5-c]pyridazin-6-yl]phenol] the IC50 was at most 100 nM.
In the case of Cn1cc(-c2ccc(-c3cc4cnn(C5CC(C)(C)NC(C)(C)C5)c4nn3)c(O)c2)c(F)n1 [Cpd 148], the IC50 is reported as at most 100 nM.
Molecule Cn1cc(-c2ccc(-c3cc4nnn(C5CC(C)(C)NC(C)(C)C5)c4nn3)c(O)c2)c(F)n1 [Cpd 130, 5-(3-fluoro-1-methyl-1H-pyrazol-4-yl)-2-[3-(2,2,6,6-tetramethylpiperidin-4-yl)-3H-[1,2,3]triazolo[4,5-c]pyridazin-6-yl]phenol] has an IC50 of at most 100 nM.
Molecule CC1(C)CC(c2csc3cc(-c4ccc(-c5cn[nH]c5)cc4O)nnc23)CC(C)(C)N1 [Cpd 24, 5-(1H-pyrazol-4-yl)-2-[7-(2,2,6,6-tetramethylpiperidin-4-yl)thieno[3,2-c]pyridazin-3-yl]phenol] has an IC50 of at most 100 nM.
CC1(C)CC(n2cnc3nc(-c4ccc(-c5cn[nH]c5)cc4O)cnc32)CC(C)(C)N1 [Cpd 1, 5-(1H-pyrazol-4-yl)-2-[1-(2,2,6,6-tetramethylpiperidin-4-yl)-1H-imidazo[4,5-b]pyrazin-5-yl]phenol] showed an IC50 of 100 to 500 nM.
